Results reported in PubChem BioAssay AID624344 (Sanford-Burnham Center for Chemical Genomics, 2012).
Calls of active or inactive are those of the source. The rule behind the calls is not given here.

Columns and labels:
Cytotoxicity = assay: NFkB reporter suppression in cystic fibrosis bronchial cells – cell-based, uHTS hits, panel, cytotoxicity readout, dose response (AID 624344); details: CF bronchial epithelial cells, mean of runs
[1] = as above; details: CF bronchial epithelial cells, PAF-induced NFkB reporter inhibition; with PAF, mean of runs

Structure (SMILES) | IC50 (Cytotoxicity) | IC50 [1]
COc1ccc(/C=N/NC(=O)c2[nH]c3ccc(Br)cc3c2-c2ccccc2)cc1 | 27 µM | 9.3 µM
C=C1C(=O)C2=CC1CCC(=O)C1(C)CCC(OC(C)=O)C(C)(C)C1CC2O (configuration not stated) | 13.3 µM | 1.35 µM
COc1cc(C(=O)Nc2nnc(-c3sccc3C)s2)cc(OC)c1OC | 4.33 µM | inactive
COc1ccc(-c2csc(/C(C#N)=C\c3ccc(O)c([N+](=O)[O-])c3)n2)cc1OC | 45.9 µM | 2.82 µM
C=C1C(=O)[C@]23C[C@H]1CCC2[C@]1(C)C(=O)CC[C@@](C)(C(=O)O)C1C[C@@H]3O (some centres not stated) | 14.4 µM | 0.96 µM
CN(C)CCCN(C(=O)CCOc1ccccc1)c1nc2c(F)cccc2s1 | 24.6 µM | 5.63 µM
CC(=O)OCCN1c2ccccc2Sc2cnccc21 | 63.5 µM (inactive) | 4.33 µM
O=C(Nc1ccccc1)Nc1ncc([N+](=O)[O-])s1 | 12.6 µM | 2.73 µM
COc1cccc(OC)c1C(=O)Nc1cc(C)nn1-c1nc2ccccc2[nH]1 | 10 µM | 3.77 µM
CN(C)c1ccc(C(C(=O)NC2CCCCC2)N(Cc2ccco2)C(=O)c2snc(C(N)=O)c2N)cc1 (configuration not stated) | 9.1 µM | 4.04 µM
C/C=C/COC(=O)c1[nH]c2c(c1C)C(=O)CC(c1ccco1)C2 (configuration not stated) | 52.8 µM (inactive) | inactive
COc1ccc([C@]2(C(C)C)ON(c3ccccc3C(F)(F)F)C2=O)cc1 | > 79 µM (inactive) | 11.1 µM
CCCN(CCC)c1ncnc2nc[nH]c12 | 57.3 µM (inactive) | 1.32 µM
COc1ccc(-c2cc(NC=O)c3ncc(-c4cc(OC)c(OC)c(OC)c4)n3c2)cc1 | 28.9 µM | > 79 µM (inactive)
S=c1[nH]nc(-c2ccncc2)n1/N=C/C(Cl)=C\c1ccccc1 | 35 µM | 1.06 µM
NC(=Nc1ccccc1)NN=Cc1c[nH]c2ccccc12 | 23.3 µM | inactive
Nc1ncnc(N2CCc3ccccc32)c1[N+](=O)[O-] | 29.7 µM | 0.651 µM
Oc1ccc(Cl)cc1Cc1cc(Cl)ccc1O | 25.2 µM | 6.19 µM
CCC(=NCCc1c(C)[nH]c2ccc(C)cc12)C1=C(O)CC(c2ccccc2)CC1=O (configuration not stated) | > 79 µM (inactive) | 7.89 µM
Cc1ccc(-n2nnnc2Sc2ccc(S(=O)(=O)NCCN(C)C)cc2[N+](=O)[O-])cc1 | 1.99 µM | 2.65 µM
Cc1cccc(Nc2ncnc3ccc(Br)cc23)c1 | 13.1 µM | 3.93 µM

Structure (SMILES) | IC50 (Cytotoxicity) | IC50 [1]
CC1(Cc2cccc(F)c2)C(=O)Nc2ccc(-c3cccnc3)cc21 (configuration not stated) | 67.9 µM (inactive) | 1.58 µM
CC(=O)OC1(C)CC(C)C(=O)C(C(O)CC2CC(=O)NC(=O)C2)C1 (configuration not stated) | 0.177 µM | < 0.15 µM
COc1cc(O)cc2cc3c(c(O)c12)C(=O)CC(C)(O)O3 (configuration not stated) | 45.5 µM | 4.17 µM
Cn1c(=O)c2c(nc(Oc3ccc4ccccc4c3)n2C)n(C)c1=O | > 79 µM (inactive) | 9.64 µM
COC(=O)N1C(=O)[C@@](c2ccccc2)(C(C)C)N1C(=O)OC | 38.7 µM | 4.26 µM
CC(=O)Nc1ccc(NC(=O)COC(=O)c2c3c(nc4ccccc24)CCN(Cc2ccccc2)C3)cc1 | 4.16 µM | 5.27 µM
CC1(C)CC(=O)C=C(NC2=CC3OC(c4ccccc4)OCC3OC2=O)C1 (configuration not stated) | 16.9 µM | 3.35 µM
CC1CCN(Cc2c(C(=O)N/N=C/c3ccc(C(C)(C)C)cc3)nnn2-c2nonc2N)CC1 | 29.8 µM | 14.6 µM
COc1ccc(COC(=O)C2=C(C)NC(=O)NC2c2ccc(OC)cc2)cc1 (configuration not stated) | 44.5 µM | 6.54 µM
CC(=O)c1cccc(NC(=O)Nc2cccnc2)c1 | 40.3 µM | 0.608 µM
CCOCC(=O)NC1CCc2cc(OC(=O)COCC)c(OC)c(OC)c2-c2ccc(SC)c(=O)cc21 (configuration not stated) | 44.5 µM | inactive
O=S(=O)(c1ccc(Br)cc1)c1cnc2ccccc2n1 | 7.65 µM | 6.57 µM
CCn1c(Oc2ccccc2F)nc2c1c(=O)n(C)c(=O)n2C | > 79 µM (inactive) | 3.57 µM
Nc1ncnc(NCc2ccc(F)cc2)c1[N+](=O)[O-] | > 79 µM (inactive) | 3.33 µM
COc1ccc(C(C(=O)NCC2CCCO2)N(Cc2cccs2)C(=O)c2snc(C(N)=O)c2N)cc1 (configuration not stated) | 44.2 µM | 3.11 µM
O=[N+]([O-])C1C(c2ccccc2)C12c1ccccc1-c1ccccc12 (configuration not stated) | 64.1 µM (inactive) | inactive
NC(=O)c1nsc(C(=O)N(c2ccccc2F)C(C(=O)NCc2ccc(F)cc2)c2ccc(O)cc2)c1N (configuration not stated) | 6.55 µM | 2.08 µM
C=CCn1cnc2c(c1=O)c1nc3ccccc3nc1n2/N=C/c1cc(OC)c(OC)c(OC)c1 | 5.94 µM | 4.18 µM
CC(C)C[C@H]1CNC(=S)N1C[C@H]1CCCN1C[C@H](Cc1ccccc1)N1C[C@H](Cc2ccc(O)cc2)N(CC2CCCCCC2)C1=S | 28.6 µM | 15.3 µM
Cc1ccc(-n2cc(-c3ccccc3)c3c(N4CCOCC4)ncnc32)cc1 | 3.85 µM | 3.49 µM
Cc1cccc(NC(=O)c2cc(-c3ccc(C)s3)nc3ccccc23)n1 | 42.4 µM | 5.26 µM

Structure (SMILES) | IC50 (Cytotoxicity) | IC50 [1]
O=S(=O)(c1cccc2cnccc12)N1CCCNCC1 | 8.16 µM | 4.07 µM
Nc1nc(/C=C/c2cccnc2)nc(-c2ccccc2O)n1 | 6.48 µM | 4.73 µM
C[C@H](O)[C@@H]1CN2CCc3c([nH]c4ccc(-c5ccc6c(c5)OCO6)cc34)[C@@H]2C[C@@H]1N(C)C(=O)Nc1ccc(F)cc1 | 29 µM | 9.85 µM
CNC(=O)COC(=O)c1ccccc1C(=O)c1ccc(Cl)c([N+](=O)[O-])c1 | 3.7 µM | 1.01 µM
CN(C)/C=C/C(=O)c1ccc2noc(-c3ccccc3)c2c1 | 10.8 µM | 3.54 µM
C=CCN1c2ccccc2[C@]23C[C@@H](C(=O)OC)N(C(=O)c4ccc(Br)cc4)C2=NC(C(=O)OC)=C(C(=O)OC)[C@H]13 | 12.2 µM | 9.35 µM
CCn1c(=O)c2c(cnn2C)c2ccccc21 | 46.2 µM | 2.18 µM
CC(=O)c1c(C)n(C2CCCCC2)c2ccc(O)cc12 | > 79 µM (inactive) | 0.797 µM
CC(=O)c1c(C)n(-c2ccccc2)c2ccc(O)cc12 | > 79 µM (inactive) | 5.58 µM
CCOC(=O)C1=C(C)Nc2ccccc2N=C1NC(=O)c1oc2ccccc2c1COC | 30.1 µM | 4.25 µM
CCC1(O)CC2CN(CCc3c([nH]c4ccccc34)C(C(=O)OC)(c3cc4c(cc3OC)N(C=O)C3C(O)(C(=O)OC)C(OC(C)=O)C5(CC)C=CCN6CCC43C65)C2)C1 (configuration not stated) | 63.1 µM (inactive) | 3.67 µM
COc1ccc(OC)c(Nc2ncnc3ccc(Br)cc23)c1 | 13.8 µM | 4.6 µM
Nc1ncnc(Sc2ccc(Cl)cc2)c1[N+](=O)[O-] | 11.6 µM | 4.13 µM
CC(C)C[C@H]1CNC(=S)N1C[C@H]1CCCN1C[C@H](Cc1ccc(O)cc1)N1C[C@H](Cc2ccc(O)cc2)N(CC2CCCCC2)C1=S | 51.2 µM (inactive) | inactive
Cc1ccc(S(=O)(=O)/N=C(\CCl)N2CCOCC2)cc1 | 9.62 µM | 2.38 µM
CC(C)c1ccccc1NC(=O)COC(=O)c1c2c(nc3ccccc13)CCN(Cc1ccccc1)C2 | 21.2 µM | 6.98 µM
NC(=O)N/N=C/c1c(Sc2nnnn2-c2ccccc2)nc2ccccn2c1=O | 6.87 µM | 0.653 µM
Cc1nn(-c2ccccn2)c2c1-c1nc(N)ncc1CC2 | 65.3 µM (inactive) | 6.76 µM
Cn1ncc2c(O/N=C(\N)c3ccc(C(C)(C)C)cc3)ncnc21 | 34.9 µM | 8.28 µM
O=C(c1ccc(O)c(Br)c1)c1cc(Br)ccc1O | 16.4 µM | 4.08 µM
CCOc1ccc(C(C(=O)NCC2CCCO2)N(Cc2cccs2)C(=O)c2snc(C(N)=O)c2N)cc1 (configuration not stated) | > 79 µM (inactive) | 3.47 µM

Structure (SMILES) | IC50 (Cytotoxicity) | IC50 [1]
COc1cc(/C=C2\SC(=O)N(CCNC(=O)c3sc4cc(F)ccc4c3Cl)C2=O)cc(OC)c1OC | 11.3 µM | 7.99 µM
CCc1ccccc1NC(=O)CN(C)C(=O)Cn1ncc(Cl)c(Cl)c1=O | 38 µM | 6.43 µM
O=Nc1ccc(NO)c2ccccc12 | 17.4 µM | 7.21 µM
OCCN1CCN(c2ncnc3ccc(Br)cc23)CC1 | 55.7 µM (inactive) | 2.44 µM
O=C(NCCC1=CCCCC1)c1coc(=O)c(Br)c1 | 10.7 µM | 3.01 µM
C[C@H]1Cn2cnc(C(=O)Nc3cccc(Cl)c3)c2C(=O)N1 | 25.5 µM | 2.26 µM
COc1ccc(C(=O)Nc2cccc(NC(=O)c3ccc(OC)c(OC)c3)n2)cc1OC | 1.49 µM | 3.69 µM
COc1ccc(-n2nnnc2C(c2cccc(OC)c2OC)N2CCC(n3c(=O)[nH]c4ccccc43)CC2)cc1 (configuration not stated) | 9.39 µM | 6.65 µM
CCc1c(C)nc2ccc(Br)cc2c1SCCC#N | 24.8 µM | 3.12 µM
CS(=O)(=O)c1ccc2nc(NC(=O)CCS(=O)(=O)c3ccccc3)sc2c1 | > 79 µM (inactive) | 4.88 µM
O=[N+]([O-])c1ccc(Oc2ccc(F)cc2Br)c2ccncc12 | 38.6 µM | 3.97 µM
CC(C)C[C@@H](CN1CCCC1CN1C(=S)NC[C@@H]1Cc1ccc(O)cc1)N1C[C@H](Cc2ccc(O)cc2)N(CC2CCCCCC2)C1=S (some centres not stated) | 25.2 µM | 7.98 µM
COc1cc(O)c(CC=C(C)C)c(O)c1C(=O)CCc1ccc(O)cc1 | 41.5 µM | 5 µM
c1cncc(-c2ccc3ncnc(NCc4ccc5c(c4)OCO5)c3c2)c1 | 6.65 µM | 6.5 µM
CCC(=O)Nc1nc(C)c(-c2csc(Nc3cccc(O)c3)n2)s1 | > 79 µM (inactive) | 3.06 µM
CCOc1ccc(-n2c(C)c(C(C)=O)c3cc(OC(C)=O)ccc32)cc1 | 44.5 µM | 0.925 µM
CCOc1cc2c(cc1O)C(=NOC)CC1C2CCC2(C)C(O)CCC12 (configuration not stated) | > 79 µM (inactive) | 7.69 µM
COc1ccc(-c2csc(NC3OC(=O)c4c3ccc(OC)c4OC)n2)cc1OC (configuration not stated) | > 79 µM (inactive) | 3.12 µM
